Laboratory results from the supplement of paper PMC6045584.
± gives the standard deviation of the averaged measurements.

Key:
TIOGUANINE [1] = compound: T1, Nc1nc2[nH]cnc2c(=S)[nH]1 [TIOGUANINE]; assay: area under dose-response curve of surviving fraction (unscaled, Aref=0) (surviving fraction x log10(nM)); higher = more resistant; details: exposure time: 5 days; dose range 0.5-1000 nM
Summary of the method: (§1)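 Tumour cell lines in 384-well plates were exposed for five days to eight inhibitor concentrations from 0.5 to 1000 nM. Viability was read by CellTiter-Glo luminescence, normalised to DMSO-only wells, in three screens per line. Dose-response survival curves were fitted to surviving fractions by 3-parameter logistic regression in the drc R package. Area under the curve is the unscaled activity area (Aref = 0) over log10 dose.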

AFATINIB [2] = compound: T2, CN(C)C/C=C/C(=O)Nc1cc2c(Nc3ccc(F)c(Cl)c3)ncnc2cc1O[C@H]1CCOC1 [AFATINIB]; assay: as above; details: exposure time: 5 days; dose range 0.5-1000 nM
Summary of the method: as §1

MDV3100 [3] = compound: T3, CNC(=O)c1ccc(N2C(=S)N(c3ccc(C#N)c(C(F)(F)F)c3)C(=O)C2(C)C)cc1F [MDV3100]; assay: as above; details: exposure time: 5 days; dose range 0.5-1000 nM
Summary of the method: as §1

CANERTINIB [4] = compound: T4, C=CC(=O)Nc1cc2c(Nc3ccc(F)c(Cl)c3)ncnc2cc1OCCCN1CCOCC1 [CANERTINIB]; assay: as above; details: exposure time: 5 days; dose range 0.5-1000 nM
Summary of the method: as §1

SAPACITABINE [5] = compound: T5, CCCCCCCCCCCCCCCC(=O)Nc1ccn([C@@H]2O[C@H](CO)[C@@H](O)[C@@H]2C#N)c(=O)n1 [SAPACITABINE]; assay: as above; details: exposure time: 5 days; dose range 0.5-1000 nM
Summary of the method: as §1

SNX-5422 [6] = compound: T6, CC1(C)CC(=O)c2c(C(F)(F)F)nn(-c3ccc(C(N)=O)c(N[C@H]4CC[C@H](OC(=O)CN)CC4)c3)c2C1 [SNX-5422]; assay: as above; details: exposure time: 5 days; dose range 0.5-1000 nM
Summary of the method: as §1

BI-2536 [7] = compound: T7, CC[C@@H]1C(=O)N(C)c2cnc(Nc3ccc(C(=O)NC4CCN(C)CC4)cc3OC)nc2N1C1CCCC1 [BI-2536]; assay: as above; details: exposure time: 5 days; dose range 0.5-1000 nM
Summary of the method: as §1

[8] = compound: Cn1cc(C2=Nc3cc(NC(=O)C(N)C4CCCCC4)cc4c3C2=CNNC4=O)cn1; assay: as above; details: exposure time: 5 days; dose range 0.5-1000 nM
Summary of the method: as §1

TIOGUANINE [9] = compound: T1, TIOGUANINE; assay: surviving fraction relative to DMSO-only wells; higher = less growth inhibition; details: exposure time: 5 days
Summary of the method: (§2)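 Log-phase tumour cells were seeded at 250–500 per well in 384-well plates and, from 24 hours after seeding, exposed continuously for five days to inhibitors at 0.5, 1, 5, 10, 50, 100, 500 and 1000 nM. Surviving fraction is CellTiter-Glo luminescence normalised to the median of DMSO-only wells. Luminescence was measured after 10 minutes at room temperature, and only lines screened three times with replicate Pearson r >0.7 and median Z' >0.3 were kept.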

AFATINIB [10] = compound: T2, AFATINIB; assay: as above; details: exposure time: 5 days
Summary of the method: as §2

MDV3100 [11] = compound: T3, MDV3100; assay: as above; details: exposure time: 5 days
Summary of the method: as §2

CANERTINIB [12] = compound: T4, CANERTINIB; assay: as above; details: exposure time: 5 days
Summary of the method: as §2

SAPACITABINE [13] = compound: T5, SAPACITABINE; assay: as above; details: exposure time: 5 days
Summary of the method: as §2

SNX-5422 [14] = compound: T6, SNX-5422; assay: as above; details: exposure time: 5 days
Summary of the method: as §2

BI-2536 [15] = compound: T7, BI-2536; assay: as above; details: exposure time: 5 days
Summary of the method: as §2

[16] = compound: Cn1cc(C2=Nc3cc(NC(=O)C(N)C4CCCCC4)cc4c3C2=CNNC4=O)cn1; assay: as above; details: exposure time: 5 days
Summary of the method: as §2

Test System: HSSYII SYNOVIAL
- area under dose-response curve (TIOGUANINE [1]): 3.09
- area under dose-response curve (AFATINIB [2]): 2.96
- area under dose-response curve (MDV3100 [3]): 2.74
- area under dose-response curve (CANERTINIB [4]): 2.66
- area under dose-response curve (SAPACITABINE [5]): 1.36
- area under dose-response curve (SNX-5422 [6]): 1.9
- area under dose-response curve (BI-2536 [7]): 0.796
- area under dose-response curve [8]: 1.67
- surviving fraction (TIOGUANINE [9]; 0.5 nM): 0.927 ± 0.055
- surviving fraction (TIOGUANINE [9]; 1 nM): 0.911 ± 0.028
- surviving fraction (TIOGUANINE [9]; 5 nM): 0.954 ± 0.05
- surviving fraction (TIOGUANINE [9]; 10 nM): 0.92 ± 0.027
- surviving fraction (TIOGUANINE [9]; 50 nM): 0.941 ± 0.055
- surviving fraction (TIOGUANINE [9]; 100 nM): 0.972 ± 0.049
- surviving fraction (TIOGUANINE [9]; 500 nM): 0.885 ± 0.02
- surviving fraction (TIOGUANINE [9]; 1000 nM): 0.842 ± 0.059
- surviving fraction (AFATINIB [10]; 0.5 nM): 0.981 ± 0.053
- surviving fraction (AFATINIB [10]; 1 nM): 0.965 ± 0.1
- surviving fraction (AFATINIB [10]; 5 nM): 0.941 ± 0.035
- surviving fraction (AFATINIB [10]; 10 nM): 0.984 ± 0.044
- surviving fraction (AFATINIB [10]; 50 nM): 0.94 ± 0.024
- surviving fraction (AFATINIB [10]; 100 nM): 0.922 ± 0.064
- surviving fraction (AFATINIB [10]; 500 nM): 0.635 ± 0.019
- surviving fraction (AFATINIB [10]; 1000 nM): 0.379 ± 0.017
- surviving fraction (MDV3100 [11]; 0.5 nM): 0.881 ± 0.042
- surviving fraction (MDV3100 [11]; 1 nM): 0.848 ± 0.052
- surviving fraction (MDV3100 [11]; 5 nM): 0.903 ± 0.022
- surviving fraction (MDV3100 [11]; 10 nM): 0.545 ± 0.034
- surviving fraction (MDV3100 [11]; 50 nM): 0.908 ± 0.028
- surviving fraction (MDV3100 [11]; 100 nM): 0.9 ± 0.066
- surviving fraction (MDV3100 [11]; 500 nM): 0.949 ± 0.032
- surviving fraction (MDV3100 [11]; 1000 nM): 0.721 ± 0.01
- surviving fraction (CANERTINIB [12]; 0.5 nM): 0.809 ± 0.039
- surviving fraction (CANERTINIB [12]; 1 nM): 0.794 ± 0.015
- surviving fraction (CANERTINIB [12]; 5 nM): 0.814 ± 0.053
- surviving fraction (CANERTINIB [12]; 10 nM): 0.855 ± 0.037
- surviving fraction (CANERTINIB [12]; 50 nM): 0.889 ± 0.033
- surviving fraction (CANERTINIB [12]; 100 nM): 0.868 ± 0.011
- surviving fraction (CANERTINIB [12]; 500 nM): 0.724 ± 0.031
- surviving fraction (CANERTINIB [12]; 1000 nM): 0.631 ± 0.021
- surviving fraction (SAPACITABINE [13]; 0.5 nM): 0.797 ± 0.015
- surviving fraction (SAPACITABINE [13]; 1 nM): 0.636 ± 0.061
- surviving fraction (SAPACITABINE [13]; 5 nM): 0.726 ± 0.032
- surviving fraction (SAPACITABINE [13]; 10 nM): 0.132 ± 0.022
- surviving fraction (SAPACITABINE [13]; 50 nM): 0.537 ± 0.033
- surviving fraction (SAPACITABINE [13]; 100 nM): 0.315 ± 0.005
- surviving fraction (SAPACITABINE [13]; 500 nM): 0.123 ± 0.0085
- surviving fraction (SAPACITABINE [13]; 1000 nM): 0.0603 ± 0.0046
- surviving fraction (SNX-5422 [14]; 0.5 nM): 0.976 ± 0.035
- surviving fraction (SNX-5422 [14]; 1 nM): 0.979 ± 0.042
- surviving fraction (SNX-5422 [14]; 5 nM): 1.09 ± 0.04
- surviving fraction (SNX-5422 [14]; 10 nM): 0.977 ± 0.0066
- surviving fraction (SNX-5422 [14]; 50 nM): 0.23 ± 0.015
- surviving fraction (SNX-5422 [14]; 100 nM): 0.152 ± 0.0056
- surviving fraction (SNX-5422 [14]; 500 nM): 0.0738 ± 0.003
- surviving fraction (SNX-5422 [14]; 1000 nM): 0.0662 ± 0.0051
- surviving fraction (BI-2536 [15]; 0.5 nM): 0.998 ± 0.053
- surviving fraction (BI-2536 [15]; 1 nM): 0.944 ± 0.04
- surviving fraction (BI-2536 [15]; 5 nM): 0.102 ± 0.023
- surviving fraction (BI-2536 [15]; 10 nM): 0.0418 ± 0.0018
- surviving fraction (BI-2536 [15]; 50 nM): 0.045 ± 0.0054
- surviving fraction (BI-2536 [15]; 100 nM): 0.0367 ± 0.001
- surviving fraction (BI-2536 [15]; 500 nM): 0.0423 ± 0.0025
- surviving fraction (BI-2536 [15]; 1000 nM): 0.0472 ± 0.00058
- surviving fraction ([16]; 0.5 nM): 0.92 ± 0.0095
- surviving fraction ([16]; 1 nM): 0.96 ± 0.063
- surviving fraction ([16]; 5 nM): 0.885 ± 0.062
- surviving fraction ([16]; 10 nM): 0.863 ± 0.014
- surviving fraction ([16]; 50 nM): 0.135 ± 0.01
- surviving fraction ([16]; 100 nM): 0.046 ± 0.0044
- surviving fraction ([16]; 500 nM): 0.0388 ± 0.0032
- surviving fraction ([16]; 1000 nM): 0.0475 ± 0.0025
